For one series, the system named is SN12C. As to the kind of experiment: NCI human cancer cell line screen, antiproliferative activity, Renal SN12C. The series is classed as cell-based. The following applies: concentration corresponding to 50% growth inhibition, read-out: cytotoxicity GI50, Renal SN12C. How it is done: (§1) The new synthesized brefeldin A prodrug candidates and analogs were examined for antiproliferative activity against human cancer cell lines in the National Cancer Institute screen, in which the activity of each compound was evaluated with approximately 55 different cancer cell lines of diverse tumor origins.

In the next series the test system is DU-145. Briefly: NCI human cancer cell line screen, antiproliferative activity, Prostate DU-145. The class given is cell-based. The note with it: concentration corresponding to 50% growth inhibition, read-out: cytotoxicity GI50, Prostate DU-145. Here is the method:
as §1

Series [1] deals with all human cancer cell lines successfully tested. Briefly: NCI screen, mean graph midpoint over approximately 55 cancer cell lines. The class given is cell-based. The note with it: average GI50 for all cell lines tested (approximately 55); test range 10^-4 to 10^-8 molar. How it is done:
as §1

In another series the test system is OVCAR-3. As to the kind of experiment: NCI human cancer cell line screen, antiproliferative activity, Ovarian OVCAR-3. The series is classed as cell-based. The note with it: concentration corresponding to 50% growth inhibition, read-out: cytotoxicity GI50, Ovarian OVCAR-3. Here is the method: as §1
Another series deals with UACC-62. Briefly: NCI human cancer cell line screen, antiproliferative activity, Melanoma UACC-62. The class given is cell-based. The note with it: concentration corresponding to 50% growth inhibition, read-out: cytotoxicity GI50, Melanoma UACC-62. Here is the method:
as §1

A further series deals with HCT-116. As to the kind of experiment: NCI human cancer cell line screen, antiproliferative activity, Colon HCT-116. The class given is cell-based. The following applies: concentration corresponding to 50% growth inhibition, read-out: cytotoxicity GI50, Colon HCT-116. Here is the method: as §1
Series [2] is described as follows: Solubility of saturated solutions in distilled water, gravimetric. The note with it: distilled water at room temperature, saturated solution.
A further series relates to HOP-62. As to the kind of experiment: NCI human cancer cell line screen, antiproliferative activity, Lung HOP-62. The class given is cell-based. The following applies: concentration corresponding to 50% growth inhibition, read-out: cytotoxicity GI50, Lung HOP-62. How it is done:
as §1

The subject of another series is SF-539. Briefly: NCI human cancer cell line screen, antiproliferative activity, CNS SF-539. The series is classed as cell-based. The following applies: concentration corresponding to 50% growth inhibition, read-out: cytotoxicity GI50, CNS SF-539. Here is the method:
as §1

For the next series, the system named is MDA-MB-435. As to the kind of experiment: NCI human cancer cell line screen, antiproliferative activity, Breast MDA-MB-435. The series is classed as cell-based. The note with it: concentration corresponding to 50% growth inhibition, read-out: cytotoxicity GI50, Breast MDA-MB-435. Here is the method: as §1
For series [3] the following is noted: buffer, pH 7.4.

≈ marks a conversion by molar mass, not a printed value.

With `CC1CCCC=CC2CC(O)CC2C(O)C(SCCO)CC(=O)O1` [Compound 5, 2,3-Dihydro-(3R)-(2′-hydroxyethylthio)brefeldin A], the GI50 (commonly the concentration at which growth is held to half of that of the control) in the series on SN12C was found to be 33 µM; in the series on DU-145, 30 µM; in the series with OVCAR-3, 27 µM; in the series on UACC-62, 40 µM; in the series with HCT-116, 19 µM; in the series with HOP-62, 34 µM. In addition, the values for the GI50 with SF-539 and with MDA-MB-435 were 23 µM and 34 µM, respectively. The “MGM (mean graph midpoint for growth inhibition)” value in series [1] came out at 20 µM. Also, the solubility (commonly the concentration that dissolves in the medium under given conditions) in [2] came to 12 mg/mL (≈ 33.5 mM).

Consider `CC1CCCC=CC2CC(O)CC2C(O)[C@H](CC(=O)O)CC(=O)O1` (stereo partly drawn) [Compound 6, 2,3-Dihydro-(3R)-(carboxymethyl)brefeldin A], for which the GI50 was 39 µM in the series with SN12C; 38 µM with DU-145; 30 µM in the series with OVCAR-3; 33 µM with UACC-62; 23 µM in the series on HCT-116; 30 µM in the series with HOP-62. The GI50 in the series on SF-539 came out at 34 µM; in the series on MDA-MB-435, 42 µM. Also, the “MGM (mean graph midpoint for growth inhibition)” value in [1] was determined as 33 µM. The compound also gave a solubility in series [2] of 40 mg/mL (≈ 118 mM).

As to `COC(=O)CC[S+]([O-])C1CC(=O)OC(C)CCCC=CC2CC(O)CC2C1O` [Compound 13, 2,3-Dihydro-(3R)-(2′-methoxycarbonylethylsulfinyl)brefeldin A], the “half-life for the conversion of the sulfoxide to brefeldin A” value in series [3] worked out at 87.4 h.

For `CC1CCCC=CC2CC(O)CC2C(O)[C@H]([S+]([O-])CCO)CC(=O)O1` (stereo partly drawn) [Compound 15, 2,3-Dihydro-(3R)-(2′-hydroxyethylsulfinyl)brefeldin A], the GI50 in the series on SN12C was 0.65 µM; with DU-145, 0.26 µM; in the series with OVCAR-3 it was 0.19 µM; in the series with UACC-62 it was 0.064 µM; with HCT-116, 0.21 µM; with HOP-62, 0.29 µM. The values for the GI50 with SF-539 and with MDA-MB-435 were 0.058 µM and 0.09 µM, respectively. Also, the “MGM (mean graph midpoint for growth inhibition)” value in series [1] turned out to be 0.11 µM. Besides, the “half-life for the conversion of the sulfoxide to brefeldin A” value in series [3] was 4.81 h.

The record behind these values is patent US6362218B1, “Brefeldin A derivatives” (Purdue Research Foundation, priority 1997, dated 2002).
